pIC50: −log10 of the molar value.
How the values were obtained:
[1] = Clearance in rat at 1 mg/kg, iv; assay type: ADME, organism-based; settings: in vivo
CYP2C9 = CYP2C9 (Homo sapiens, UniProt P11712); test: Inhibition of CYP2C9 (unknown origin) in microsomes at 10 uM relative to control; assay type: ADME
[2] = target: T1, Prostaglandin E synthase (Homo sapiens) (UniProt O14684); test: (§1) Inhibition of mPGES1 in human whole blood assessed as reduction in LPS-induced PGE2 production preincubated for 30 mins followed by LPS addition measured after 20 to 24 hrs by LC-MS analysis
T1 sequence (whole entry): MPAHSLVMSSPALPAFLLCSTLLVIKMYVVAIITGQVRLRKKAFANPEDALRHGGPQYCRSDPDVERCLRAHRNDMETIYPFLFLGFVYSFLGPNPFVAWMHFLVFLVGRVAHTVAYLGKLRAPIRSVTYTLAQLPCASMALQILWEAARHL

Prostaglandin E synthase [3] = target: T2, Prostaglandin E synthase (Homo sapiens, UniProt O14684); test: as §1
T2 sequence (O14684 whole entry): T1 sequence (whole entry)

Prostaglandin E synthase [4] = target: T2, Prostaglandin E synthase; test: Inhibition of human mPGES1 expressed in HEK293 microsomes assessed as reduction in PGE2 production using PGH2 as substrate after 2.5 mins by LC-MS analysis
[5] = target: T3, Prostaglandin G/H synthase 1 (Homo sapiens, UniProt P23219); test: Inhibition of COX1 in human whole blood assessed as effect on LPS-induced TXB2 level preincubated for 30 mins followed by LPS addition measured after 20 to 24 hrs by LC-MS analysis
T3 sequence (P23219 whole entry): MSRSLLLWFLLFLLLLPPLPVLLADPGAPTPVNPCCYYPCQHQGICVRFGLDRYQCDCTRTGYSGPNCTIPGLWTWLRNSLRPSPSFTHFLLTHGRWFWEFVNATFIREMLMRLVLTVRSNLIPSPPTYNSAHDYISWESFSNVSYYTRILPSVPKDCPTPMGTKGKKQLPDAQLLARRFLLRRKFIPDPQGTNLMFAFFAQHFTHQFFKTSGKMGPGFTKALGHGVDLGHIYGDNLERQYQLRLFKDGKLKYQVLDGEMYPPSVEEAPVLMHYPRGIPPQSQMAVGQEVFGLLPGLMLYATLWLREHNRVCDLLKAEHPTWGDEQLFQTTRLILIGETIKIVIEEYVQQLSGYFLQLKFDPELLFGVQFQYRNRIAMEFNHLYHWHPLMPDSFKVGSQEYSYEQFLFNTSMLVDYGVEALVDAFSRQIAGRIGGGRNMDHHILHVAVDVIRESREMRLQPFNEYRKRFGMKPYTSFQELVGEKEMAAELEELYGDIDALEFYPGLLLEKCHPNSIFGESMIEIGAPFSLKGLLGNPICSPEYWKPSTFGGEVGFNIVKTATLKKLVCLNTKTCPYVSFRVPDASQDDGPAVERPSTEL

Prostaglandin E synthase [6] = target: T2, Prostaglandin E synthase; test: Inhibition of mPGES1 in human A549 cells assessed as reduction in IL-1beta-induced PGE2 production preincubated for 30 mins followed by IL-1beta addition measured after 18 hrs by enzyme immunoassay; assay type: cell-based
[7] = target: T3, Prostaglandin G/H synthase 1; test: Inhibition of COX1 in human whole blood assessed as effect on LPS-induced PGF2alpha level preincubated for 30 mins followed by LPS addition measured after 20 to 24 hrs by LC-MS analysis
[8] = target: T4, Prostaglandin G/H synthase 2 (Homo sapiens, UniProt P35354); test: Inhibition of COX2 in human A549 cells assessed as reduction in IL-1beta-induced PGI2 production preincubated for 30 mins followed by IL-1beta addition measured after 18 hrs by enzyme immunoassay; assay type: cell-based; settings: a549, 18 h
T4 sequence (P35354 whole entry): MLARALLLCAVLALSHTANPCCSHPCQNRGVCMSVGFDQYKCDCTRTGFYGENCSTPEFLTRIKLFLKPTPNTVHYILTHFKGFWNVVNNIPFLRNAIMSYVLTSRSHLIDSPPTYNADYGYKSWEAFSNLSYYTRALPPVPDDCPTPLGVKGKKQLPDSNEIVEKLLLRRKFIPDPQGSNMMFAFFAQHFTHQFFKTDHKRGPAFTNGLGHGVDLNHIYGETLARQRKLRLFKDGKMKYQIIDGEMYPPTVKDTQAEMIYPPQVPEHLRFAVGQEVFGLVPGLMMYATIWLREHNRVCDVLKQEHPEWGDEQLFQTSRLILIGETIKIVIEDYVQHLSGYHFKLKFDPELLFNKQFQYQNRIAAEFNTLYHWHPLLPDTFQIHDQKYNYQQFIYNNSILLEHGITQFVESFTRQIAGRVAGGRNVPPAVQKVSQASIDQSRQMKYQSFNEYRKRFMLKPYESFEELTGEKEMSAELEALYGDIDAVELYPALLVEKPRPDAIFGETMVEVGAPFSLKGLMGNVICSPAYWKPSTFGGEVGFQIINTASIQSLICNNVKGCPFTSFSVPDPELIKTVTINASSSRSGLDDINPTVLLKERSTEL

[9] = Cmax in rat at 5 mg/kg, po; assay type: ADME, organism-based; design: dose 5 mg/kg, route oral; settings: in vivo
[10] = target: T4, Prostaglandin G/H synthase 2; test: Inhibition of human COX2 assessed as reduction in PGF2alpha production at 10 uM using arachidonic acid as substrate by colorimetric method
[11] = Clearance in dog at 1 mg/kg, iv; assay type: ADME, organism-based, Canis lupus familiaris; settings: in vivo
Rattus norvegicus = test: Time at which plasma concentration stays above human whole blood IC80 level in rat at 5 mg/kg, po administered as single dose
[12] = Cmax in dog at 5 mg/kg, po; assay type: ADME, organism-based, Canis lupus familiaris; design: dose 5 mg/kg, route oral; settings: in vivo
[13] = Oral bioavailability in rat at 5 mg/kg; assay type: ADME, organism-based; settings: in vivo
Homo sapiens = organism: Homo sapiens; test: Selectivity index, ratio of compound effect for inhibition of human mPGES1 expressed in HEK293 microsomes to compound effect for inhibition of human COX2
[14] = target: T5, Prostaglandin G/H synthase 1 (Ovis aries, UniProt P05979); test: Inhibition of ovine COX1 assessed as reduction in PGF2alpha production at 10 uM using arachidonic acid as substrate by colorimetric method; settings: sheep
T5 sequence (P05979 whole entry): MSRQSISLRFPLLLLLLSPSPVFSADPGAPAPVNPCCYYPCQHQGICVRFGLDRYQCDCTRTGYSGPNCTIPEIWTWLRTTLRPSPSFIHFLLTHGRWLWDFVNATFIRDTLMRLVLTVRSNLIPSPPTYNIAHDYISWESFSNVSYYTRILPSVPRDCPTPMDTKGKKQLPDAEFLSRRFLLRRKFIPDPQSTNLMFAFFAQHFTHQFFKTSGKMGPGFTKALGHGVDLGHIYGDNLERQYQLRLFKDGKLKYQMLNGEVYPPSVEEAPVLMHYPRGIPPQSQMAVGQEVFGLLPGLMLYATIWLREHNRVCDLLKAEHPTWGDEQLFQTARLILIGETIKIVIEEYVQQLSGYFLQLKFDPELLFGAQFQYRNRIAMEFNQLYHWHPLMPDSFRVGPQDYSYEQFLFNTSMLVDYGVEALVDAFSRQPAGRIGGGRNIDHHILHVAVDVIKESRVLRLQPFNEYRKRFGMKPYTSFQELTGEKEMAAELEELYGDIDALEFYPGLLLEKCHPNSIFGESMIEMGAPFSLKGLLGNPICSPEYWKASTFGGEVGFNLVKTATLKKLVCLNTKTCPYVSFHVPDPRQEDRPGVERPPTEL

[15] = Volume of distribution at steady state in dog at 1 mg/kg, iv; assay type: ADME, organism-based, Canis lupus familiaris; settings: in vivo, read-out: Vdss
[16] = target: T4, Prostaglandin G/H synthase 2; test: Inhibition of COX2 in human A549 cells assessed as reduction in IL-1beta-induced PGI2 production up to 10 uM preincubated for 30 mins followed by IL-1beta addition measured after 18 hrs by enzyme immunoassay; assay type: cell-based; settings: a549, 18 h
Canis familiaris = test: Time at which plasma concentration stays above human whole blood IC80 level in dog at 3 mg/kg, po administered as single dose; design: species or system Canis lupus familiaris
[17] = Oral bioavailability in dog at 3 mg/kg; settings: in vivo
[18] = target: Voltage-gated inwardly rectifying potassium channel KCNH2 (Homo sapiens, UniProt Q12809); test: Inhibition of human ERG expressed in CHO cells at 10 uM by automated patch clamp method; assay type: cell-based
Voltage-gated inwardly rectifying potassium channel KCNH2, sequence (Q12809 whole entry): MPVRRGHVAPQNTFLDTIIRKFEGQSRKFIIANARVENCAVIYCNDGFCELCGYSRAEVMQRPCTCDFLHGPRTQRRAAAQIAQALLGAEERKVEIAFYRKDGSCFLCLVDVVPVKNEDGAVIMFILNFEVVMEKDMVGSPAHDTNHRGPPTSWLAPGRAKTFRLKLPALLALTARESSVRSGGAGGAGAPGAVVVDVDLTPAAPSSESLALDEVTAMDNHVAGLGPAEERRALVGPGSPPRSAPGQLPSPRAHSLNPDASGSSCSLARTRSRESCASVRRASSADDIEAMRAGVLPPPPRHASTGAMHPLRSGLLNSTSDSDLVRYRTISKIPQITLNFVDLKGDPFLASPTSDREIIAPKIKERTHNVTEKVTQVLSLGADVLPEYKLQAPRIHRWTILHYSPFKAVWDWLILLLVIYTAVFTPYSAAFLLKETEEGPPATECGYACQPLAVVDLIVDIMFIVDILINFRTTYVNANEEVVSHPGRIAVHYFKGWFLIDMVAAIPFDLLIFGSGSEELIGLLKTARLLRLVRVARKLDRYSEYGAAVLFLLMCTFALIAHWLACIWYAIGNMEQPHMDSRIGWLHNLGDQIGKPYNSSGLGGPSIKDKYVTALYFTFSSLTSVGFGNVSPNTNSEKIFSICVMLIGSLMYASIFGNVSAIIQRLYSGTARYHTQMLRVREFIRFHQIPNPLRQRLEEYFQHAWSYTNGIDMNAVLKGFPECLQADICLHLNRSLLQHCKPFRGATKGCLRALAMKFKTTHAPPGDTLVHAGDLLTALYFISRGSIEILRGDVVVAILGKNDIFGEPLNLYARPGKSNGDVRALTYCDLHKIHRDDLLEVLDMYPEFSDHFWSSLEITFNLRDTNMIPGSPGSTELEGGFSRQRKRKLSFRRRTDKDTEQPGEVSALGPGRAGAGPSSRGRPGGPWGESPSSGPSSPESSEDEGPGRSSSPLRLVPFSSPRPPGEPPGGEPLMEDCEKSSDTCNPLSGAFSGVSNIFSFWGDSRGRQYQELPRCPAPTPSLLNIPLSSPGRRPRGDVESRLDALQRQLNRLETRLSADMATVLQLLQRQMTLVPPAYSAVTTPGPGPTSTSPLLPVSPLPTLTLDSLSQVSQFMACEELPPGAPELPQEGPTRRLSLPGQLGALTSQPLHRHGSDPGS

[19] = target: T3, Prostaglandin G/H synthase 1; test: Inhibition of COX1 in human whole blood assessed as effect on LPS-induced TXB2 level up to 10 uM preincubated for 30 mins followed by LPS addition measured after 20 to 24 hrs by LC-MS analysis
[20] = target: T3, Prostaglandin G/H synthase 1; test: Inhibition of COX1 in human whole blood assessed as effect on LPS-induced PGF2alpha level up to 10 uM preincubated for 30 mins followed by LPS addition measured after 20 to 24 hrs by LC-MS analysis
[21] = Volume of distribution at steady state in rat at 1 mg/kg, iv; assay type: ADME, organism-based; settings: in vivo, read-out: Vdss
[22] = Selectivity index, ratio of compound effect for inhibition of human mPGES1 expressed in HEK293 microsomes to compound effect for inhibition of ovine COX1

CYP2C9, sequence (P11712 whole entry): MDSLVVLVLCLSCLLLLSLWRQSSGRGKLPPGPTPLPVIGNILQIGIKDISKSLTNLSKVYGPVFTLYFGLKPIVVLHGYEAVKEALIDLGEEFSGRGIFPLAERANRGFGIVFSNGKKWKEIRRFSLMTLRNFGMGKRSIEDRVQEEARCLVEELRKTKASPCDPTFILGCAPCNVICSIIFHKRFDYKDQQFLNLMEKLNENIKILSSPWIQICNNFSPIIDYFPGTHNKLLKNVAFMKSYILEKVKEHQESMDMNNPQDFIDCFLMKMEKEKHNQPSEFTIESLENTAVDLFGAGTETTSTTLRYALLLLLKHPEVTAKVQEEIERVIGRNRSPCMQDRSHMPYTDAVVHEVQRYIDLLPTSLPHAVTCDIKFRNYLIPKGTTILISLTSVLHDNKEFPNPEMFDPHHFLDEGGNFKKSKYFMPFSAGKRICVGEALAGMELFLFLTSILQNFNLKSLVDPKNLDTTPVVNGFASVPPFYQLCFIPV

Row | Compound | clearance [1] | inhibition at 10 µM (CYP2C9) | IC80 [2] | pIC50 (Prostaglandin E synthase [3]) | pIC50 (Prostaglandin E synthase [4]) | other results
1 | O=C(O)c1ccc(Cl)cc1OC[C@@H]1CCC[C@@H]1NC(=O)C1CCN(c2ccc(C(F)(F)F)cc2)CC1 | 57 mL/min/kg | 39% | 25 nM | 8.10 | 8.70 | –
2 | O=C(O)c1ccc(Cl)cc1NC[C@@H]1CCC[C@@H]1NC(=O)C1CCN(c2ccccc2)CC1 | 81 mL/min/kg | 46% | 1370 nM | 7.09 | 8.70 | inhibition (INH) [5]: Not Active; pIC50 (Prostaglandin E synthase [6]): 7.68; inhibition (INH) [7]: Not Active; inhibition (INH) [8]: Not Active
3 | O=C(O)c1ccccc1CC[C@@H]1CCC[C@@H]1NC(=O)C1CCN(c2ccc(C(F)(F)F)cc2)CC1 | 5 mL/min/kg | 5% | 40 nM | 8.30 | 8.70 | –
4 | Cc1cccc2ccc(N3CCC(C(=O)N[C@H]4CCC[C@H]4CCc4ccccc4C(=O)O)CC3)nc12 | 31 mL/min/kg | 14% | 24 nM | 8.22 | 9.00 | Cmax [9]: 530 nM; inhibition (INH) [10]: Not Active; clearance [11]: 6.5 mL/min/kg; Time (Rattus norvegicus): >12 h; Cmax [12]: 4000 nM; bioavailability [13]: 52%; Selectivity Index (Homo sapiens): > 10000; inhibition (INH) [14]: Not Active; Vd [15]: 1.2 L/kg; inhibition (INH) [16]: Not Active; Time (Canis familiaris): 24 h; bioavailability [17]: 68%; inhibition (INH) [18]: Not Active; inhibition (INH) [19]: Not Active; inhibition (INH) [20]: Not Active; Vd [21]: 4.8 L/kg; Selectivity Index [22]: > 10000
5 | O=C(O)c1ccc(F)cc1CC[C@@H]1CCC[C@@H]1NC(=O)C1CCN(c2ccc(C(F)(F)F)cc2)CC1 | 12 mL/min/kg | 40% | 41 nM | 8.22 | 9.00 | –
6 | O=C(O)c1ccc(Cl)cc1NC[C@@H]1CCC[C@@H]1NC(=O)C1CCN(c2ccc(C(F)(F)F)cc2)CC1 | 40 mL/min/kg | 71% | 8 nM | 8.52 | 8.40 | inhibition (INH) [5]: Not Active; pIC50 (Prostaglandin E synthase [6]): 8.46; inhibition (INH) [7]: Not Active; inhibition (INH) [8]: Not Active
7 | O=C(O)c1ccc(Cl)cc1CC[C@@H]1CCC[C@@H]1NC(=O)C1CCN(c2ccc(C(F)(F)F)cc2)CC1 | 16 mL/min/kg | 51% | 5 nM | 9.00 | 9.00 | –
8 | O=C(O)c1cccnc1CC[C@@H]1CCC[C@@H]1NC(=O)C1CCN(c2ccc(C(F)(F)F)cc2)CC1 | 38 mL/min/kg | – | 146 nM | 7.68 | 8.22 | –
9 | Cc1ccc(C(=O)O)c(CC[C@@H]2CCC[C@@H]2NC(=O)C2CCN(c3ccc(C(F)(F)F)cc3)CC2)c1 | 9 mL/min/kg | 56% | 10 nM | 8.52 | 9.00 | –
10 | CC(C)(C)C(=O)N[C@H]1CCC[C@H]1CNc1cc(Cl)ccc1C(=O)O | – | – | – | 5.05 | 7.37 | –
11 | O=C(O)c1ccccc1CC[C@@H]1CCC[C@@H]1NC(=O)C1CCN(c2ccc(OC(F)(F)F)cc2)CC1 | 17 mL/min/kg | 32% | 43 nM | 8.00 | 9.00 | –
12 | O=C(O)c1ccccc1CC[C@@H]1CCC[C@@H]1NC(=O)C1CCN(c2ccc(C(F)(F)F)cn2)CC1 | 6 mL/min/kg | 22% | 267 nM | 7.47 | 8.70 | –
